The results in this text go back to patent US9771378B2 (Denali Therapeutics, Inc., priority 2014, dated 2017).

Molecules are shown by their SMILES. Bounds are passed on as bounds.

The subject of the assay is Aβ42 (human neuroglioma H4 cells expressing human wild type APP751). Kind of assay: In vitro cell screening assay with sandwich ELISA quantification of Aβ42 peptide. In kind it is cell-based. The note with it: H4 cells stably expressing human wild type APP751; Pro293 chemically defined medium; compounds 0.003-10 μM; incubated overnight (16-18 h); supernatant Aβ42 by sandwich ELISA; normalized to DMSO and DAPT; read-out: Aβ42 H4 Prot Fre IC50. The procedure, abridged:
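Aβ42 in supernatants was quantified by sandwich ELISA with C-terminal-specific capture and 4G8-HRP detection, absorbance at 450 nm. Stable APP751-expressing human H4 cells received compound at 0.003-10 μM (0.33% DMSO) overnight (16-18 h). IC50 was derived from percent-of-DMSO-control data by nonlinear variable-slope fit.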
For orientation: ELISA stands for enzyme-linked immunosorbent assay.
The term IC50 denotes the concentration needed to halve the response being measured. In the case of `COc1cc(Nc2ncc3c(n2)N(C)C(C2CCC(F)(F)CC2)CO3)cnc1-c1cnn(C)c1` (single isomer, unassigned; (-)) [Example 231B], the IC50 was > 3 µM. For the compound `COc1ccc(Cl)c(C2COc3cnc(Nc4ccc(-n5cnc(C)c5)c(OC)c4)nc3N2C)c1` (single isomer, unassigned; (-)) [Example 167B], the IC50 worked out at 0.075 µM. Regarding `COc1cc(Nc2ncc3c(n2)N(C)C(CC(F)(F)F)CO3)ccc1-n1cnc(C)c1` (single isomer, unassigned; (-)) [Example 172A], the IC50 is 0.207 µM. As for `COc1cc(Nc2ncc3c(n2)N(C)C(c2ccccc2C)CO3)cnc1-n1cnc(C)c1` (single isomer, unassigned; (+)) [Example 171A], the figure is 0.011 µM; as for `Cc1cc(-c2ccc(Nc3ncc4c(n3)N(C)C(c3cc(F)cc(F)c3)CO4)cc2F)ccn1` (racemic) [Example 41], 0.063 µM. As to `COc1cc(Nc2ncc3c(n2)N(C)C(C(F)(F)F)CO3)ccc1-n1cnc(C)c1` (single isomer, unassigned; (-)) [Example 187B], the IC50 is 0.033 µM. On to `COc1cc(Nc2ncc3c(n2)N(C)[C@@H](CC2CC2)CO3)cnc1-n1cnc(C)c1` [Example 218], for which the IC50 amounted to 0.039 µM. The result for `COc1cc(Nc2ncc3c(n2)N(C)C(C(F)(F)F)CO3)ccc1-n1cnc(C)c1` (single isomer, unassigned; (+)) [Example 187A] reads 0.419 µM; that for `Cc1cc(-c2ccc(Nc3ncc4c(n3)N(C)C(c3ccc(F)cc3F)CO4)cc2F)ccn1` (single isomer, unassigned; (-)) [Example 66B], 1.1 µM. With `COc1cc(Nc2ncc3c(n2)N(C)C(c2ccccc2C)CO3)ccc1-n1cnc(C)c1` (single isomer, unassigned; (-)) [Example 31A], the IC50 amounted to 0.138 µM. As for `COc1nc(Nc2ncc3c(n2)N(C)C(c2cc(F)c(F)c(F)c2)CO3)c(F)cc1-c1cnn(C)c1` (racemic) [Example 196], the figure is 0.544 µM; as for `Cc1cn(-c2ccc(Nc3ncc4c(n3)N(C)C(c3ccccc3)CO4)cc2)cn1` (single isomer, unassigned; (+)) [Example 26A], 0.055 µM; as for `COc1nc(Nc2ncc3c(n2)N(C)C(c2cc(F)cc(F)c2)CO3)ccc1-c1cnn(C)c1` (single isomer, unassigned; (-)) [Example 184A], > 3 µM. As for `COc1cc(Nc2ncc3c(n2)N(C)C(c2ccc(F)cc2)CO3)ccc1-n1cnc(C)c1` (single isomer, unassigned; (-)) [Example 49A], the figure is 0.191 µM; as for `COc1cc(Nc2ncc3c(n2)N(C)C(C(F)(F)F)CO3)ccc1-n1cnc(C)n1` (single isomer, unassigned; (+)) [Example 242B], 1.86 µM; as for `Cc1cn(-c2ccc(Nc3ncc4c(n3)N(C)C(C)CO4)cc2C#N)cn1` (single isomer, unassigned; (+)) [Example 205A, (+)-5-((7,8-dimethyl-7,8-dihydro-6H-pyrimido [5,4-b] [1, 4]oxazin-2-yl)amino)-2-(4-methyl-1H-imidazol-1-yl) benzonitrile], 0.231 µM. Take `COc1cc(Nc2ncc3c(n2)N(C)C(c2ccccc2Cl)CO3)ccc1-c1ccnc(C)c1` (single isomer, unassigned; (+)) [Example 85B]: the IC50 came out at 0.13 µM. With `Cc1cn(-c2ccc(Nc3ncc4c(n3)N(C)C(C)(C)CO4)nc2)cn1` [Example 262], the IC50 is > 3 µM.

Consider `COc1cc(Nc2ncc3c(n2)N(C)C(C2(C(F)(F)F)CC2)CO3)ccc1-n1cnc(C)c1` (single isomer, unassigned; (-)) [Example 245A], for which the half-inhibitory concentration (IC50) is 0.216 µM. As for `COc1cc(Nc2ncc3c(n2)N(C)C(c2cc(F)cc(F)c2)CO3)cnc1-n1cnc(C(F)(F)F)c1` (single isomer, unassigned; (+)) [Example 206A], the figure is 0.027 µM; as for `Cc1cn(-c2ccc(Nc3ncc4c(n3)N(C)C(c3ccccc3C)CO4)cc2F)cn1` (single isomer, unassigned; (+)) [Example 34A], 0.02 µM. As for `COc1nc(Nc2ncc3c(n2)N(C)C(C)CO3)ccc1-n1cnc(C)c1` (racemic) [Example 190], the figure is > 3 µM; as for `COc1cc(Nc2ncc3c(n2)N(C)C(CC(F)(F)F)CO3)ccc1-n1cnc(C)c1` (single isomer, unassigned; (+)) [Example 172B], 0.054 µM.

As for `COc1cc(Nc2ncc3c(n2)N(C)C(c2cc(F)cc(F)c2)CO3)ccc1C#N` (single isomer, unassigned; (+)) [Example 237B, (+)-4-((7-(3,5-difluorophenyl)-8-methyl-7,8-dihydro-6H-pyrimido [5,4-b] [1, 4]oxazin-2-yl)amino)-2-methoxybenzonitrile], the IC50 came to 0.226 µM.

For the compound `COc1cc(Nc2ncc3c(n2)N(C)C(c2ccc(F)cc2F)CO3)ccc1-c1ccnc(C)c1` (single isomer, unassigned; (+)) [Example 63B], the IC50 came to 0.064 µM.

For the compound `Cc1cn(-c2ccc(Nc3ncc4c(n3)N(C)C(c3ccccc3Cl)CO4)cc2F)cn1` (single isomer, unassigned; (-)) [Example 67B], the IC50 was 0.643 µM. The result for `Cc1cn(-c2ccc(Nc3ncc4c(n3)N(C)C(c3ccccc3OC(F)(F)F)CO4)cc2F)cn1` (single isomer, unassigned; (-)) [Example 64B] reads 0.741 µM. With `Cc1cn(-c2ccc(Nc3ncc4c(n3)N(C)C(C(F)(F)F)CO4)cc2C#N)cn1` (single isomer, unassigned; (-)) [Example 232B, (−)-2-(4-methyl-1H-imidazol-1-yl)-5-((8-methyl-7-(trifluoromethyl)-7,8-dihydro-6H-pyrimido [5,4-b] [1, 4]oxazin-2-yl)amino) benzonitrile], the IC50 was determined as 0.017 µM. The result for `CN1c2nc(Nc3ccc(C#N)cc3)ncc2OCC1c1cc(F)cc(F)c1` (single isomer, unassigned; (+)) [Example 233A, (+)-4-((7-(3,5-difluorophenyl)-8-methyl-7,8-dihydro-6H-pyrimido [5,4-b] [1, 4]oxazin-2-yl)amino) benzonitrile] reads 0.888 µM; that for `Cc1cn(-c2ccc(Nc3ncc4c(n3)N(C)C(c3cc(Cl)ccc3C(F)(F)F)CO4)cc2F)cn1` (single isomer, unassigned; (-)) [Example 100B], 0.588 µM. As to `COc1cc(Nc2ncc3c(n2)N(C)C(c2ccccc2C)CO3)ccc1-n1cnc(C)c1` (racemic) [Example 31], the IC50 was 0.025 µM. The result for `COc1cc(Nc2ncc3c(n2)N2CCC(F)(F)C2CO3)cnc1-n1cnc(C)c1` (single isomer, unassigned; (-)) [Example 305B, (−)-7,7-difluoro-N-(5-methoxy-6-(4-methyl-1H-imidazol-1-yl)pyridin-3-yl)-6a, 7,8,9-tetrahydro-6H-pyrimido [5,4-b] pyrrolo [1,2-d] [1, 4] oxazin-2-amine] reads 0.582 µM; that for `COc1cc(Nc2ncc3c(n2)N(C)C(C2(C(F)(F)F)CC2)CO3)ccc1-n1cnc(C)c1` (single isomer, unassigned; (+)) [Example 245B], 0.022 µM; that for `COc1cc(Nc2ncc3c(n2)N(C)C(c2cc(F)c(F)c(F)c2)CO3)ccc1-n1cnc(C)c1` (racemic) [Example 40], 0.02 µM.

Consider `Cc1cn(-c2ccc(Nc3ncc4c(n3)N(C)C(c3cc(F)cc(F)c3)CO4)cc2OC(F)(F)F)cn1` (single isomer, unassigned; (+)) [Example 223B], for which the IC50 is > 3 µM. As for `COc1cc(Nc2ncc3c(n2)N(C)C(c2cc(F)cc(F)c2)CO3)ncc1-n1cnc(C)c1` (single isomer, unassigned; (+)) [Example 220B], the figure is 0.044 µM; as for `COc1cc(Nc2ncc3c(n2)N(C)C(c2ccc(F)cc2F)CO3)ccc1-n1cnc(C)c1` (racemic) [Example 48], 0.036 µM; as for `Cc1cn(-c2ccc(Nc3ncc4c(n3)N(C)C(c3ccccc3C(F)(F)F)CO4)cc2F)cn1` (single isomer, unassigned; (+)) [Example 84A], 0.203 µM. Turning to `COc1nc(Nc2ncc3c(n2)N(C)C(c2cc(F)cc(F)c2)CO3)c(F)cc1-c1cnn(C)c1` (racemic) [Example 197], the concentration for half-maximal inhibition (IC50) was > 3 µM. As for `COc1cc(Nc2ncc3c(n2)N(C)C2(CCCC2)CO3)cnc1-n1cnc(C)c1` [Example 259], the figure is 0.073 µM. As for `COc1cc(Nc2ncc3c(n2)N(C)C(C)CO3)cnc1-n1cnc(C)c1` (single isomer, unassigned; (-)) [Example 185B], the figure is 0.54 µM. With `COc1cc(Nc2ncc3c(n2)N(C)C(C2CCC(F)(F)CC2)CO3)cnc1-n1cnc(C)c1` (single isomer, unassigned; (-)) [Example 221B], the IC50 was 0.325 µM. The result for `Cc1cn(-c2ccc(Nc3ncc4c(n3)N(C)C(c3cc(F)c(F)cc3F)CO4)cc2F)cn1` (single isomer, unassigned; (-)) [Example 98B] reads 2.1 µM; that for `Cc1cn(-c2ccc(Nc3ncc4c(n3)N(C)C(c3cc(C(F)(F)F)ccc3Cl)CO4)cc2F)cn1` (single isomer, unassigned; (-)) [Example 173B], 0.831 µM. As for `Cc1cn(-c2ccc(Nc3ncc4c(n3)N(C)C(c3ccccc3)CO4)cc2F)cn1` (racemic) [Example 25], the figure is 0.101 µM. As for `COc1cc(Nc2ncc3c(n2)N(C)C(c2cc(F)c(F)c(F)c2)CO3)ccc1-n1cnc(C)c1` (single isomer, unassigned; (+)) [Example 40B], the figure is 0.011 µM; as for `COc1cc(Nc2ncc3c(n2)N(C)C(c2ccccc2OC(F)(F)F)CO3)ccc1-c1ccnc(C)c1` (single isomer, unassigned; (+)) [Example 62B], 0.165 µM.

Consider `COc1cc(Nc2ncc3c(n2)N(C)C(C2CC(F)(F)C2)CO3)ccc1-n1cnc(C)c1` (single isomer, unassigned; (+)) [Example 212B], for which the IC50 is 0.061 µM.
